Patent US11446270B2, “Leonurine crystal and use thereof in preparation of insulin sensitizer, hypoglycemic drug and lipid-lowering drug” (ZHUHAI HENGQIN NEW DISTRICT ZHONGZHU ZHENGTAI MEDICAL …, priority 2017, dated 2022)

Columns and labels:
[1] = Accelerated stability test of leonurine crystal forms; assay type: physicochemical; conditions: 40° C.; for Crystal stability: 70% RH, 10 days
From the text: In the invention, the dominant medicinal crystal form was also screened by the accelerated stability experimental method, and observed the transformation among the various crystal forms.

[2] = Hygroscopicity, dynamic vapor sorption (DVS), 0-95% RH; assay type: physicochemical; conditions: for change of crystal form / hygroscopicity (in words): range of 0-95% relative humidity
Method: Dynamic vapor sorption (DVS) method, instrument model: SMS DVS Intrinsic, 0˜95% RH, temperature: 25° C.; FTIR method, instrument model: Nicolet 6700, sectral range: 4000˜400 cm^−1, resolution ratio: 4 cm^−1, scanning times: 32, the infrared spectra of the samples were determined by KBr pressed-disk technique method, temperature: 25° C.;
In this invention, it is named as leonurine crystal form A, which is monohydrate crystal form, square block crystal (as shown in FIG. 13), no crystal transformation before melting, dehydrates at 120˜150° C. and transform into anhydrous crystal form B, and decomposes at about 250° C. […] Under the condition of, in the suspension experiment at 25° C., in methanol, ethanol, isopropanol, acetone, acetonitrile, tetrahydrofuran, nitromethane, ethyl acetate, isopropyl acetate, isoamyl alcohol, methyl tert-butyl ether, toluene, methyl isobutyl ketone, n-hexane, n-heptane, ether, dichloromethane, chloroform, petroleum ether, water and other solvents; and under the condition of, in the suspension experiment at 50° C., in methanol, ethanol, acetone, methyl ethyl ketone, isopropyl acetate, methyl tert-butyl ether, toluene, n-hexane, n-heptane, diethyl ether, chloroform, petroleum ether, water and other solvents; and under most solvent conditions in suspension and volatilization of mixed solvents at 25° C. and 50° C., form A can be obtained. […] In a range of 0˜95% RH, the dehydration and water absorption behavior of the crystal form is very weak.

ApoE knockout mice = experiment: Serum lipids in hyperlipidemia ApoE knockout mice on high fat diet; assay type: in vivo; conditions: positive control 3 mg/kg/day intragastric, 4 weeks, vs model group
Method: Fifteen C57BL/6J mice (male, 6-8 weeks) and seventy-five ApoE knockout mice (male, 6-8 weeks) were used for experiments. C57BL/6J mice were fed with normal diet, and ApoE knockout mice were fed for 1 week with a diet of normal/high fat diet ratio of 1/1.
Mice were weighed before administered drugs every week, where the dosage of the drug for mice is calculate according to the weight; and housed under 24±1° C. room temperature and 55±5% air humidity condition, and allowed enough food and water ad libitum. After the drug administration continuously for 4 weeks, the mice were anesthetized with pentobarbital sodium according to body weight. Blood (0.5 ml per mouse) was drawn from the inner canthus vein for hematology analysis. Hematology analysis: blood samples were let for standing for 2 h and centrifuged (3000 rpm, 10 min, 4° C.) to obtain serum. The total cholesterol (TC), triacylglycerol (TG) and low-density cholesterol (LDL-C) levels in the serum samples were assessed using automatic biochemical analyzer. Statistical analysis: GraphPad Prism 5 software was used to analyze and draw figure. Results were expressed as the mean±standard (mean±SD), and statistical analysis was performed by one-way analysis of variance (ANOVA) or student's t test. A difference with P<0.05 was considered statistically significant. Statistical significance was set at *P<0.05, **P<0.01, ***P<0.001 versus the model group.

New Zealand white rabbit = experiment: Serum lipids in hyperlipidemia New Zealand rabbits on high fat diet; assay type: in vivo; conditions: positive control 2.5 mg/kg/day intragastric, 12 weeks, vs model group
Method: Forty-eight male New Zealand rabbits weighed 1.8 to 2.2 kg were housed under 12 h dark-12 h light cycles and allowed food and water ad libitum to adapt to the housing environment for one week, and then randomly divided into 6 groups: • 1) Control group (Normal diet, n=8); Administered intragastrically with ultrapure water; • 2) Model group (High fat diet, n=8); Administered intragastrically with ultrapure water; • 3) Leonurine crystal form A in low dose group (High fat diet, n=8); Administered intragastrically at a dose of 4 mg/kg/day; • 4) Leonurine crystal form A in middle dose group (High fat diet, n=8); Administered intragastrically at a dose of 8 mg/kg/day; • 5) Leonurine crystal form A in high dose group (High fat diet, n=8); […] Administered intragastrically at a dose of 2.5 mg/kg/day; Rabbits were weighed before administered drugs every week, where the dosage of the drug for rabbits is calculate according to the weight; and housed in an air-conditioned room under (24±1° C. room temperature and 55±5% air humidity) and allowed enough food and water ad libitum. After 12 weeks of administration, the rabbits were fasted for 12 h, and blood (2 ml) was drawn from the marginal ear vein for hematology analysis. Hematology analysis: blood samples were let for standing for 2 h and centrifuged (3000 rpm, 10 min, 4° C.) to obtain serum. The serum samples were tested according to the protocols recommended by Nanjing Jiancheng Bioengineering Institute. The total cholesterol (TC), triacylglycerol (TG), low-density cholesterol (LDL-C) and […] (HDL-C) levels in the serum samples were assessed using automatic microplate reader and automatic biochemical analyzer. Statistical analysis: GraphPad Prism 5 software was used to analyze and draw figure. Results were expressed as the mean±standard (mean±SD), and statistical analysis was performed by one-way analysis of variance (ANOVA) or student's t test. A difference with P<0.05 was considered statistically significant. Statistical significance was set at *P<0.05, **P<0.01, ***P<0.001 versus the model group.

[3] = relative humidity 60%-80%, 10-day stability test

SMILES | Crystal stability [1] | Crystal stability ([1]; listed as E) | crystal transformation behavior [1, 3] | hygroscopicity (in words) [1, 3] | hygroscopicity relative to crystal form A [1, 3] | hygroscopicity, water absorption ([2]; 60% RH) | hygroscopicity, water absorption ([2]; 80% RH) | change of crystal form [2] | hygroscopicity (in words) [2] | Crystal stability ([1]; listed as D) | serum total cholesterol (TC) (ApoE knockout mice) | serum triacylglycerol (TG) (ApoE knockout mice) | serum total cholesterol (TC) (New Zealand white rabbit) | serum triacylglycerol (TG) (New Zealand white rabbit) | Crystal stability ([1]; listed as C) | Crystal stability ([1]; listed as F) | Crystal stability ([1]; listed as form F) | Crystal stability ([1]; listed as B)
COc1cc(C(=O)OCCCCNC(=N)N)cc(OC)c1O [crystal form E, 4-guanidino-1-butyl 4-hydroxy-3,5-dimethoxybenzoate] | remain unchanged | stable | did not appear crystal transformation | strong | about ten times | 60% RH, water absorption 0.07% | 80% RH, water absorption 0.12% | didn't change | slight hygroscopicity |  |  |  |  |  |  |  |  | 
COc1cc(C(=O)OCCCCNC(=N)N)cc(OC)c1O [crystal form D, 4-guanidino-1-butyl 4-hydroxy-3,5-dimethoxybenzoate] | transformed into crystal form A |  | appeared crystal transformation |  |  | 60% RH, water absorption 1.63% | 80% RH, water absorption 0.98% | changed into crystal form A |  | form into A |  |  |  |  |  |  |  | 
CC(C)c1c(C(=O)Nc2ccccc2)c(-c2ccccc2)c(-c2ccc(F)cc2)n1CC[C@@H](O)C[C@@H](O)CC(=O)O [Atorvastatin, reference compound] |  |  |  |  |  |  |  |  |  |  | reduced | reduced | no significant difference | reduced |  |  |  | 
COc1cc(C(=O)OCCCCNC(=N)N)cc(OC)c1O [crystal form C, 4-guanidino-1-butyl 4-hydroxy-3,5-dimethoxybenzoate] | transformed into crystal form A |  | appeared crystal transformation |  |  | 60% RH, water absorption 0.56% | 80% RH, water absorption 1.05% | changed into crystal form A |  |  |  |  |  |  | form into A |  |  | 
COc1cc(C(=O)OCCCCNC(=N)N)cc(OC)c1O [crystal form F, 4-guanidino-1-butyl 4-hydroxy-3,5-dimethoxybenzoate] |  |  | appeared crystal transformation |  |  | 60% RH, water absorption 0.14% | 80% RH, water absorption 0.30% | changes into crystal form A | slightly hygroscopicity |  |  |  |  |  |  | form into A | transformed into crystal form A | 
COc1cc(C(=O)OCCCCNC(=N)N)cc(OC)c1O [crystal form B, 4-guanidino-1-butyl 4-hydroxy-3,5-dimethoxybenzoate] | transformed into crystal form A |  | appeared crystal transformation |  |  | 60% RH, water absorption 0.14% | 80% RH, water absorption 0.30% | changed into crystal form A | slightly hygroscopicity |  |  |  |  |  |  |  |  | form into A
